Paper PMC9000250, “Computational Methods for Understanding the Selectivity and Signal Transduction Mechanism of Aminomethyl Tetrahydronaphthalene to Opioid Receptors” (Molecules, 2022)
“And” between values parts separate entries of the source, which are not always exact repeats. Identical values can stand only once. Like-named read-outs stand apart in the source and are kept apart here.

Key:
[1] = target: T1, human MOR (Homo sapiens, UniProt P35372); assay: [35S]GTP-γ-S functional assay, CHO cell membranes; type: biochemical; settings: stimulation of [35S]GTPγS binding; NA = no activity
Method: In a final volume of 0.5 mL, various concentrations of each tested compound were incubated with […] (μ) of CHO cell membranes that stably expressed the human MOR. The assay buffer consisted of 50 mM Tris-HCl, pH 7.4, 3 mM MgCl2, 0.2 mM EGTA, […] and 100 mM NaCl. The final concentration of [^35S]GTP-γ-S was 0.08 nM. Nonspecific binding was measured by the inclusion of […] GTP-γ-S. Binding was initiated by the addition of the membranes. After an incubation period of 60 min at 30 °C, the reactions were terminated by rapid filtration, and the radioactivity was determined by liquid scintillation counting.

[2] = target: T2, DOR (Homo sapiens, UniProt P41143); assay: Radioligand binding assay, displacement of [3H]DPDPE from CHO cell membranes; parameters: host or cells: CHO cells, stably transfected; membranes; settings: for activity / affinity for DOR, in words: in vitro; for Ki: [3H]DPDPE, CHO membranes, read-out: Ki (±SEM) DOR
[3] = target: T1, human MOR; assay: Radioligand binding assay, displacement of [3H]DAMGO from CHO cell membranes
[4] = target: T3, KOR (Homo sapiens, UniProt P41145); assay: Radioligand binding assay, displacement of [3H]U69593 from CHO cells; parameters: host or cells: CHO cells, stably transfected; membranes; settings: for inhibition at 1 µM: displacement of [3H]U69593 at 1.0 μM
[5] = target: T2, DOR; parameters: host or cells: CHO cells, stably transfected; membranes; method as in PMID 27096047
[6] = target: T3, KOR; parameters: expressed in transfected cells; method as in PMID 27096047; settings: stimulation of [35S]GTPγS binding; NA = no activity; cited from earlier work
[7] = target: T3, KOR; parameters: host or cells: CHO cells, stably transfected; membranes; method as in PMID 27096047; settings: cited from earlier work; for Ki: read-out: Ki (±SEM) KOR
[8] = target: T1, human MOR; parameters: method as in PMID 27096047; settings: cited from earlier work
[9] = target: T2, DOR; parameters: expressed in transfected cells; method as in PMID 27096047; settings: stimulation of [35S]GTPγS binding; NA = no activity; cited from earlier work

T2 sequence (P41143 whole entry): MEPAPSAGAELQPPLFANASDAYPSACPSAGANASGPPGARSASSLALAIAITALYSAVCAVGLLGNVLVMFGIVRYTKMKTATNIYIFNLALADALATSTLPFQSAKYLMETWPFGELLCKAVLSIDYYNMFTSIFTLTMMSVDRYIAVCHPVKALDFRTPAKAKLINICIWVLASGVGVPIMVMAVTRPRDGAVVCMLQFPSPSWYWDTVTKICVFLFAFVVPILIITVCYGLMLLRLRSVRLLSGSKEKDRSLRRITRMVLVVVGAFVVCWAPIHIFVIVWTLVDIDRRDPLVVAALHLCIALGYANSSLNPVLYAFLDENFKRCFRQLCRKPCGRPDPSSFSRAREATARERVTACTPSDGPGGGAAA
T3 sequence (P41145 whole entry): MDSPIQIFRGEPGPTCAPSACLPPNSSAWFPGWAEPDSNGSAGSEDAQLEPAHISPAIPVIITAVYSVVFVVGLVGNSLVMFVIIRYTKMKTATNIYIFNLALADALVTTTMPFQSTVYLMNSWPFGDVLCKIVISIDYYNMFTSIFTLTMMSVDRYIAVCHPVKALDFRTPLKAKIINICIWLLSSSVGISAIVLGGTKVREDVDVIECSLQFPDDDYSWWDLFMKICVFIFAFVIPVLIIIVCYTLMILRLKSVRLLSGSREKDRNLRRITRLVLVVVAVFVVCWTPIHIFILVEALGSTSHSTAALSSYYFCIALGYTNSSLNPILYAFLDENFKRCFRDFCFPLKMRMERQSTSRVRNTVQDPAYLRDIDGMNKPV
T1 sequence (P35372 whole entry): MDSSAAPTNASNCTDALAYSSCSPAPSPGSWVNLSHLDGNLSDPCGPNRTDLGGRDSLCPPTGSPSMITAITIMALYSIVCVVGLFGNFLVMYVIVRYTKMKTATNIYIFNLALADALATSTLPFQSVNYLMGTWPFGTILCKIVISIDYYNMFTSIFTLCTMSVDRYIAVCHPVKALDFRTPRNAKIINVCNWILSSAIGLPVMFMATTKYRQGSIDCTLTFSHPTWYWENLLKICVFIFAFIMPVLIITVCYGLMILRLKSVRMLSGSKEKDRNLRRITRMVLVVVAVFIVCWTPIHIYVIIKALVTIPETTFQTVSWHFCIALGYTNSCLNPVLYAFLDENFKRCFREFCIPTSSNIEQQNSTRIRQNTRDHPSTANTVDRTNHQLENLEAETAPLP

## C[C@@H](NC(=O)[C@@H](N)Cc1ccc(O)cc1)C(=O)NCC(=O)N(C)[C@@H](Cc1ccccc1)C(=O)NCCO [DAMGO]
[1]
  Emax: 205 ± 2.05%

## CN(C)CC1CCc2ccccc2C1(O)c1cccc(O)c1 (stereo not shown) [FW-1]
[2]
  inhibition at 1 µM: 21.7 ± 2.9%
  activity / affinity for DOR, in words: not be active
[3]; in vitro
  activity for MOR, in words: not be active
[3]; read-out: Ki (±SEM) MOR
  Ki: > 10000 nM
[4]
  inhibition at 1 µM: 56.3 ± 4.9%
[4]; in vitro
  activity for KOR, in words: not be active

## CN(C)CC1CCc2cc(-c3ccccc3)ccc2C1(O)c1cccc(O)c1 (stereo not shown) [FW-AII-OH-1]
[5]; displacement of [3H]DPDPE at 1.0 μM; cited from earlier work
  Inhibition (%) DOR: 22.0 ± 1.0%
[6]
  EC50: 580 ± 84 nM
  KOR Emax%: 187 ± 2%
[7]
  Ki: 141 nM and 140 nM
[8]; displacement of [3H]DAMGO at 1.0 μM
  Inhibition (%) MOR: 20 ± 1.0%

## COc1ccccc1-c1ccc2c(c1)CCC(CN(C)C)C2(O)c1cccc(O)c1 (stereo not shown) [FW-AII-OH-2]
[5]; [3H]DPDPE, CHO membranes; >10^4 = no binding affinity up to 10^4 nM; read-out: Ki (±SEM) DOR; cited from earlier work
  Ki: 4.64 nM and 4.7 nM
[7]; displacement of [3H]U69593 at 1.0 μM
  Inhibition (%) KOR: 17.7 ± 0.1%
[8]; [3H]DAMGO, CHO membranes, >10^4 = no binding affinity up to 10^4 nM, read-out: Ki (±SEM) MOR
  Ki: > 10000 nM
[9]
  DOR Emax%: 230 ± 7%
  EC50: 9.3 ± 0.5 nM

## COc1ccccc1-c1ccc2c(c1)CCC(CN(C)CCc1ccccc1)C2(O)c1cccc(O)c1.Cl (stereo not shown) [FW-DI-OH-2, 1-(3-hydroxyphenyl)-6-(2-methoxyphenyl)-2-((methyl(phenethyl)amino)methyl)-1,2,3,4-tetrahydronaphthalen-1-ol hydrochloride]
[2]
  Ki: 8.7 nM and 8.65 nM
  activity / affinity for DOR, in words: high affinitive
[4]
  inhibition at 1 µM: 30.1 ± 2.1%
other
  melting point: 200.2 to 202.4 °C

## CN(CCc1ccccc1)CC1CCc2cc(-c3ccccc3)ccc2C1(O)c1cccc(O)c1.Cl (stereo not shown) [FW-DIII-OH-2, 1-(3-hydroxyphenyl)-2-((methyl(phenethyl)amino)methyl)-6-phenyl-1,2,3,4-tetrahydronaphthalen-1-ol hydrochloride]
[2]
  Ki: 228 nM and 229 nM
  activity / affinity for DOR, in words: moderate affinity
[4]
  inhibition at 1 µM: 13.5 ± 0.1%
other
  melting point: 202.1 to 204.6 °C

## CN(C)CC1CCCCC1(O)c1cccc(O)c1 (stereo not shown) [M1, reference compound]
[5]; read-out: Ki (±SEM) DOR; [3H]DPDPE, CHO membranes; >10^4 = no binding affinity up to 10^4 nM; cited from earlier work
  Ki: > 10000 nM
[7]; [3H]U69593, CHO cells, >10^4 = no binding affinity up to 10^4 nM
  Ki: > 10000 nM
[1]
  Emax: 226 ± 9%
